Source: patent US20110098296A1, “Thiazole And Oxazole Kinase Inhibitors” (priority 2007, published 2011)

Tests used:
[1] = target: B-Raf (Homo sapiens, UniProt P15056); assay: B-Raf Accelerated MEK ATPase assay (BRAMA); format: biochemical; settings: Method (A): BRAMA, kinetic read
Method: Compounds of the present invention were tested for B-Raf protein serine kinase inhibitory activity in a B-Raf Accelerated MEK ATPase assay (BRAMA). The BRAMA assay is a high sensitivity assay which measures an intrinsic MEK-mediated ATP hydrolysis uncoupled from downstream ERK phosphorylation by coupling the formation of ADP to NADH oxidation through the enzymes pyruvate kinase and lactate dehydrogenase. When ADP production is initiated by addition of catalytic amounts of an activated Raf enzyme and non-phosphorylated MEK, one observes robust ADP production concomitant with Raf-mediated phosphorylation of MEK.
Method A: Specific details of the assay are disclosed in: C. Rominger, M. Schaber, E. May. Assay for B-Raf Activity Based on Intrinsic MEK ATPase Activity. Statutory Invention Registration Ser. No. 11/084,993 (March, 2005). Method B: The method is the same as method A, but includes the following changes: 1) the assay was performed with a final MEK concentration of 150 nM and 2) the assay was read as single end point instead of a kinetic read.

[2] = target: T1, EGFR (Homo sapiens, UniProt P00533); assay: EGFR substrate phosphorylation assay (HTRF); format: biochemical; settings: Method (A): Enzyme Mix incubated with compound at 20° C. for 1 hr, reaction started by adding Substrate Mix
T1 construct: made in house; host or cells: baculovirus expression system
T1 sequence (P00533 25-1210): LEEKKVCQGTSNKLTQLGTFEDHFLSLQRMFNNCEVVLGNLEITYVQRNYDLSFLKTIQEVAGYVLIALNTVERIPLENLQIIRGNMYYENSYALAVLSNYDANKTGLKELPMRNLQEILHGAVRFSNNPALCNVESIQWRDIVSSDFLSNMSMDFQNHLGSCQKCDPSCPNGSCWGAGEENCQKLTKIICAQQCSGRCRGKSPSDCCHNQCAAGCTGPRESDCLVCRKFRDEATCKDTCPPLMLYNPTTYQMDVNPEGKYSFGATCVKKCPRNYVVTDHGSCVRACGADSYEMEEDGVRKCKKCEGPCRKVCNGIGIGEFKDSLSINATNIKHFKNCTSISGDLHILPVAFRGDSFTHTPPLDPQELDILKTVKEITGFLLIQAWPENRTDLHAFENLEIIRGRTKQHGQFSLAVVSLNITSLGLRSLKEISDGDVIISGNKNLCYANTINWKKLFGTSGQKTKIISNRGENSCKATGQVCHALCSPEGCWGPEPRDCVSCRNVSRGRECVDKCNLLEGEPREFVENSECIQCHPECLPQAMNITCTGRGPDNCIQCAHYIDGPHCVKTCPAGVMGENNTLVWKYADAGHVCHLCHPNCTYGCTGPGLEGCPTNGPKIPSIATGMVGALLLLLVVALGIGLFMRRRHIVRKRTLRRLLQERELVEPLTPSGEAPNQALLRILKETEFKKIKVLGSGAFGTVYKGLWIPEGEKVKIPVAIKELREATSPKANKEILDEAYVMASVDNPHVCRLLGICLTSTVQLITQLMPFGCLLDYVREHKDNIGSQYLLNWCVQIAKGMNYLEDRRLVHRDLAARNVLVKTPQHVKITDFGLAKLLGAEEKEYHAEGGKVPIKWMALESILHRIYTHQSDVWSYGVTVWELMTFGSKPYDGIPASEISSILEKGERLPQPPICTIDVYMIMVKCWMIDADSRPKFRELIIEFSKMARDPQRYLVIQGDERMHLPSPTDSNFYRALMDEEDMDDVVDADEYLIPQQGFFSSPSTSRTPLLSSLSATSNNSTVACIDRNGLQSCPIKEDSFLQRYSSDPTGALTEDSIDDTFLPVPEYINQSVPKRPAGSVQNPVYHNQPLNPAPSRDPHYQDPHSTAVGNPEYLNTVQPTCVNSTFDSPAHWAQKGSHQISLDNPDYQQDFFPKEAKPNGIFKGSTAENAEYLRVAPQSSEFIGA
How it was run: (§1)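 Baculovirus-expressed kinase (0.8 nM EGFR or 10 nM ErbB2 in enzyme mix) with Peptide C 0.8 μM and ATP 20 μM (substrate-mix levels), MOPS pH 7.5, MnCl2; 90 min, 20 °C, HTRF anti-phosphotyrosine. Method A adds 1 h enzyme–compound preincubation; B none. pIC50, final compound 0.00027–47.6 μM.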

[3] = target: T2, ErbB2 (Homo sapiens, UniProt P04626); assay: ErbB-2 substrate phosphorylation assay (HTRF); format: biochemical; settings: Method (A): Enzyme Mix incubated with compound at 20° C. for 1 hr, reaction started by adding Substrate Mix
T2 construct: made in house; host or cells: baculovirus expression system
T2 sequence (P04626 23-1255): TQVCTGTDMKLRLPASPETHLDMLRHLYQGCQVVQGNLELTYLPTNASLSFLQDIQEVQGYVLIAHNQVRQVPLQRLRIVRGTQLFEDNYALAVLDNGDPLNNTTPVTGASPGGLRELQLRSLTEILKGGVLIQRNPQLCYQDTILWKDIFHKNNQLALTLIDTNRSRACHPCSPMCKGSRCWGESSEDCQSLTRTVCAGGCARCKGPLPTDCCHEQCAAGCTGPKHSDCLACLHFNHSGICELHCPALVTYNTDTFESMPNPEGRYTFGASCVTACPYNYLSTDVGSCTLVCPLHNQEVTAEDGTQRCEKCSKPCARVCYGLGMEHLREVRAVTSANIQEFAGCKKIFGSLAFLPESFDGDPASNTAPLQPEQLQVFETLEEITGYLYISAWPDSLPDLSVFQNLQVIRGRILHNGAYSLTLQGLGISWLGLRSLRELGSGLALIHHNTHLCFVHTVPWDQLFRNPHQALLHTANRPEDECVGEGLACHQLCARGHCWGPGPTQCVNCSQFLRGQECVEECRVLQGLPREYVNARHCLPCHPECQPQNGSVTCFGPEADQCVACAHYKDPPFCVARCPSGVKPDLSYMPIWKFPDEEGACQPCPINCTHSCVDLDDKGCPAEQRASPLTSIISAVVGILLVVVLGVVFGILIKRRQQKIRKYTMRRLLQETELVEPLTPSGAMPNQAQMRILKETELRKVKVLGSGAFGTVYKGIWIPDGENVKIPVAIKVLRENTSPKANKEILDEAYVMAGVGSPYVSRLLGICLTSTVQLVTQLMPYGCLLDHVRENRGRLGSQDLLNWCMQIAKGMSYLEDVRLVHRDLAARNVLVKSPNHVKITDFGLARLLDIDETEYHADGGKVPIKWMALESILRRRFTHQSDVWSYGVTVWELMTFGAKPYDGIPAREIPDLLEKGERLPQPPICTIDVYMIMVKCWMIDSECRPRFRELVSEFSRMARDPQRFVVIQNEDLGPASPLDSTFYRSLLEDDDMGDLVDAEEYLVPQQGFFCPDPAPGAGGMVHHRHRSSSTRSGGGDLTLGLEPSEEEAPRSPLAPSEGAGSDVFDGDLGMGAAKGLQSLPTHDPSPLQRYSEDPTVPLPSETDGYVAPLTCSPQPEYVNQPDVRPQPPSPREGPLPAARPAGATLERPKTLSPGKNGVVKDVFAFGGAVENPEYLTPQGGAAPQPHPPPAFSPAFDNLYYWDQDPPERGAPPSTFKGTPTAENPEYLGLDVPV
How it was run: as §1

[4] = test system: Colo205 tumor cells; assay: Method C: Cell Growth Inhibition Assay (CellTiter-Glo), Colo205; format: cell-based; settings: Homo sapiens, COLO 205, 72 h, 3 days, 4-parameter fit
How it was run: (§2)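 Growth inhibition is expressed as the concentration giving 50% inhibition relative to vehicle controls, derived from a 4-parameter fit. Tumor cells plated at 500 per well were exposed for 3 days to compound (0.2% DMSO) before total ATP was quantified by CellTiter-Glo.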

[5] = test system: SK-MEL-28 tumor cells; assay: Method C: Cell Growth Inhibition Assay (CellTiter-Glo), SK-MEL-28; format: cell-based; settings: Homo sapiens, SK-MEL-28, 72 h, 3 days, 4-parameter fit
How it was run: as §2

[6] = test system: HN5 tumor cells; assay: Method B: CellTiter-Glo Growth Inhibition Assay, HN5; format: cell-based; settings: Homo sapiens, 72 h, 3 days
Method: (§3) Human breast tumor cells (BT474) were cultured in RPMI, (Invitrogen, 22400) containing 10% fetal bovine serum (FBS). Human head and neck tumor cells (HN5) were cultured in low glucose DMEM (Invitrogen, 12320) containing 10% FBS. Human colon tumor cells (Colo205) were cultured in DMEM (Invitrogen, 10564) containing 10% FBS. Human melanoma cancer cells (SK-MEL-28) were incubated in DMEM (Invitrogen). All cell lines were maintained at 37° C. in a humidified 5% CO2, 95% air incubator. Cells were harvested using trypsin/EDTA, counted using a haemocytometer, and plated in 30 μL of the appropriate media described above, at the following densities, in a half-area, black-walled, 96-well tissue culture plate (Corning 3882): BT474 3,000 cells/well, HN5 500 cells/well, Colo205 3,000 cells/well, and SK-MEL-28 500 cells/well). The next day, compounds were diluted in DMEM containing […] gentamicin, from 10 mM stock solutions in DMSO. 30 μL/well of these dilutions were added to the 30 μL/well of media currently on the cell plates. Medium containing 0.6% DMSO was added to control wells. The final concentration of DMSO in all wells was 0.3%. Cells were incubated at 37° C., 5% CO2 for 3 days. Cell biomass was estimated using CellTiter-Glo® reagent (Promega G7571). Briefly, plates were removed from the incubator and allowed to equilibrate to rt for 30 minutes. 25-60 μL of CellTiter-Glo® reagent were added to each well of the treated cells and plates were shaken on an orbital plate shaker for 2 mins. Plates were incubated without shaking for 30 more mins and read in a luminometer with an integration time of 0.5 seconds per well. Percent inhibition of cell growth was calculated relative to vehicle-treated control wells. Concentration of compound that inhibits 50% of vehicle control cell growth (IC50) was interpolated using nonlinear regression (Levenberg-Marquardt) and the equation, y=V max*(1−(x/(K+x)))+Y2, where “K” was equal to the IC50.

[7] = test system: BT474 tumor cells; assay: Method B: CellTiter-Glo Growth Inhibition Assay, BT474; format: cell-based; settings: Homo sapiens, BT-474, 72 h, 3 days
Method: as §3

[8] = test system: Colo205 tumor cells; assay: Method B: CellTiter-Glo Growth Inhibition Assay, Colo205; format: cell-based; settings: Homo sapiens, COLO 205, 72 h, 3 days
Method: as §3

[9] = test system: Colo205 tumor cells; assay: Method A: Methylene Blue Growth Inhibition Assay, Colo205; format: cell-based; settings: Homo sapiens, COLO 205, 72 h, 3 days
Method: (§4) Human breast (BT474) and head and neck (HN5) tumor cells were cultured in low glucose DMEM (Life Technologies 12320-032) containing 10% fetal bovine serum (FBS). Human colon tumor cells (Colo205) were cultured in DMEM (Invitrogen, 10564) containing 10% FBS. The SV40 transformed human mammary epithelial cell line HB4a was transfected with either human H-ras cDNA (HB4a r4.2) or the human c-ErbB2 cDNA (HB4a c5.2). The HB4a clones were cultured in RPMI containing 10% FBS, insulin (5 g/mL), hydrocortisone (5 g/mL), supplemented with the selection agent hygromycin B (50 g/mL). All lines were grown in a humidified incubator at 37° C. in 95% air, 5% CO2. Cells were harvested using trypsin/EDTA, counted using a haemocytometer, and plated in 100 μL of the appropriate media, at the following densities, in a 96-well tissue culture plate (Falcon 3075): BT474 10,000 cells/well, HN5 3,000 cells/well. The next day, compounds were diluted in DMEM containing […] gentamicin, at twice the final required concentration, from 10 mM stock solutions in DMSO. 100 μl/well of these dilutions were added to the 100 μL of media currently on the cell plates. Medium containing 0.6% DMSO was added to control wells. Compounds diluted in DMEM were added to all cell lines. The final concentration of DMSO in all wells was 0.3%. Cells were returned to the incubator (37° C., […]) for 3 days. Medium was then removed by aspiration. Cell biomass was estimated by staining cells with 90 μL/well methylene blue (Sigma M9140, 0.5% in 1:1 EtOH:H2O), and incubation at room temperature for at least 30 minutes. Stain was removed, and the plates rinsed by immersion in deionized H2O and air-dried. To release stain from the cells 100 μL of solubilization solution were added (1% N-lauroyl sarcosine, sodium salt, Sigma L5125, in PBS), and plates were shaken gently for about 30 minutes. Optical density at 620 nm was measured on a microplate reader. Percent inhibition of cell growth was calculated relative to vehicle-treated control wells. Concentration of compound that inhibits 50% of control cell growth (IC50) was interpolated using nonlinear regression (Levenberg-Marquardt) and the equation,
(§5) y=Vmax*(1−(x/(K+x)))+Y2, where “K” was equal to the IC50.

[10] = test system: BT474 tumor cells; assay: Method A: Methylene Blue Growth Inhibition Assay, BT474; format: cell-based; settings: Homo sapiens, BT-474, 72 h, 3 days
Method: as §4, §5

[11] = test system: HN5 tumor cells; assay: Method A: Methylene Blue Growth Inhibition Assay, HN5; format: cell-based; settings: Homo sapiens, 72 h, 3 days
Method: as §4, §5

Sequence of B-Raf (P15056 whole entry): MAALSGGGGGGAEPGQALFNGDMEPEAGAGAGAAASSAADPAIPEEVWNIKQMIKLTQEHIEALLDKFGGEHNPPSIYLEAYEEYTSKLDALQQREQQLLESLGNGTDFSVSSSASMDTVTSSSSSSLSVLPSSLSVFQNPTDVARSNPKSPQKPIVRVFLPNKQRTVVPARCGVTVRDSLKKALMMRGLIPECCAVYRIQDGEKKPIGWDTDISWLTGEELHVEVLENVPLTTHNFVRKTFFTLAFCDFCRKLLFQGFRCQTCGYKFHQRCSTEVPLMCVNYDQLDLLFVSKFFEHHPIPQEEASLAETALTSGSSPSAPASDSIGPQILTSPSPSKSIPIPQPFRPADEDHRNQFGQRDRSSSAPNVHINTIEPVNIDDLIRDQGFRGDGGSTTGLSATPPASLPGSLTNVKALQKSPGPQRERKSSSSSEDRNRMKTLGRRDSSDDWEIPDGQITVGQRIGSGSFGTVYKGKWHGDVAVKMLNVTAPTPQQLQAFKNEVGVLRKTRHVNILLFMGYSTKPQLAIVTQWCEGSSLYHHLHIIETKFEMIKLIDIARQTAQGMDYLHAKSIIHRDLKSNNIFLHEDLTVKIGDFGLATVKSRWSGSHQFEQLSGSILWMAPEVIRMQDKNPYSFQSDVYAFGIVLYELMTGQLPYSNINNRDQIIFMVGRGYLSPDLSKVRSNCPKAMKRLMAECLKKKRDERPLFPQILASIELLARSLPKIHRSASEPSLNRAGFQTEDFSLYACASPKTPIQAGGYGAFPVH

| IC50 [1] [nM] | IC50 [2] [nM] | IC50 [3] [nM] | IC50 [4] [nM] | IC50 [5] [nM] | IC50 [6] [nM] | IC50 [7] [nM] | IC50 [8] [nM] | IC50 [9] [nM] | IC50 [10] [nM] | IC50 [11] [nM] | SMILES |
| --- | --- | --- | --- | --- | --- | --- | --- | --- | --- | --- | --- |
| 100 to 1000 | < 100 | < 100 | > 1000 | > 1000 |  |  |  |  |  |  | Cc1cc(Nc2nccc(-c3sc(N(C)C)nc3-c3cccc(NC(=O)c4c(F)cccc4F)c3)n2)ccc1CC1CCNCC1 [Example 42, N-{3-[2-(Dimethylamino)-5-(2-{[3-methyl-4-(4-piperidinylmethyl)phenyl]amino}-4-pyrimidinyl)-1,3-thiazol-4-yl]phenyl}-2,6-difluorobenzamide] |
| > 1000 | < 100 | 100 to 1000 |  |  | 100 to 1000 | 100 to 1000 | > 1000 |  |  |  | Cc1cc(-c2sc(N)nc2-c2cccc(NC(=O)c3c(F)cccc3F)c2)nc(Nc2cccc(OCCN(C)C)c2)n1 [Example 49, N-[3-(2-Amino-5-{2-[(3-{[2-(dimethylamino)ethyl]oxy}phenyl)amino]-6-methyl-4-pyrimidinyl}-1,3-thiazol-4-yl)phenyl]-2,6-difluorobenzamide] |
| > 1000 | < 100 | < 100 |  |  |  |  |  | 100 to 1000 | < 100 | < 100 | COCCOc1ccc(Nc2nccc(-c3sc(N)nc3-c3cccc(NC(=O)c4cccn4C)c3)n2)cc1F [Example 66, N-[3-(2-Amino-5-{2-[(3-fluoro-4-{[2-(methyloxy)ethyl]oxy}phenyl)amino]-4-pyrimidinyl}-1,3-thiazol-4-yl)phenyl]-1-methyl-1H-pyrrole-2-carboxamide] |
| > 1000 | < 100 | < 100 |  |  |  |  |  | > 1000 | 100 to 1000 | 100 to 1000 | Nc1nc(-c2cccc(OCc3ccccc3)c2)c(-c2ccnc(Nc3cccc(-c4cnco4)c3)n2)s1 [Example 69, 4-(2-Amino-4-{3-[(phenylmethyl)oxy]phenyl}-1,3-thiazol-5-yl)-N-[3-(1,3-oxazol-5-yl)phenyl]-2-pyrimidinamine] |
